The values that follow are results of earlier work, collected in publication PMC6105164 (Cancer Chemotherapy and Pharmacology, 2018).

In series [1] the test system is patients with KRAS mutations. Also on record: method as in PMID 24024839, PMID 18316791, PMID 23182985. To be noted: cited from earlier work.
The next series relates to prenylation of RAS. Details: method as in PMID 22020205, PMID 15084616, PMID 15459217. To be noted: cited from earlier work.

For the compound panitumumab: EGF receptor inhibitor, the efficacy entry in series [1] was “a little efficacy”.
For the compound `Cn1cncc1[C@@](N)(c1ccc(Cl)cc1)c1ccc2c(c1)c(-c1cccc(Cl)c1)cc(=O)n2C` [tipifarnib], in the series with prenylation of RAS, the “activity in clinical trials” value was “a little activity”.
